Laboratory results from the NIST ThermoML archive (doi:10.1021/je0503554).
± gives the expanded uncertainty stated by the source.

Assay: activity coefficient (dimensionless); of the first substance listed, at infinite dilution; xn = mol fraction of the nth substance listed
Settings: Liquid, Chromatography, x1 = 0

Compound: CCCCCCCC [octane] + CCCCCC[n+]1ccn(C)c1.O=S(=O)([N-]S(=O)(=O)C(F)(F)F)C(F)(F)F
- activity coefficient (300.95 K): 15.2 ± 1
- activity coefficient (312.25 K): 14.3 ± 0.98
- activity coefficient (322.85 K): 13.2 ± 0.9
- activity coefficient (333.25 K): 12.2 ± 0.84
- activity coefficient (343.75 K): 11.5 ± 0.78

Compound: CCCCCO [pentan-1-ol] + CCCCCC[n+]1ccn(C)c1.O=S(=O)([N-]S(=O)(=O)C(F)(F)F)C(F)(F)F
- activity coefficient (333.25 K): 2.18 ± 0.15
- activity coefficient (343.75 K): 2 ± 0.14
- activity coefficient (354.05 K): 1.8 ± 0.12
- activity coefficient (364.55 K): 1.63 ± 0.11
- activity coefficient (374.95 K): 1.51 ± 0.1

Compound: CCCCC=O [pentanal] + CCCCCC[n+]1ccn(C)c1.O=S(=O)([N-]S(=O)(=O)C(F)(F)F)C(F)(F)F
- activity coefficient (301.75 K): 1.11 ± 0.07
- activity coefficient (312.25 K): 1.1 ± 0.07
- activity coefficient (322.85 K): 1.08 ± 0.068
- activity coefficient (333.35 K): 1.06 ± 0.067
- activity coefficient (343.55 K): 1.05 ± 0.066
- activity coefficient (354.05 K): 1.03 ± 0.065
- activity coefficient (364.45 K): 1.01 ± 0.063
- activity coefficient (374.95 K): 0.99 ± 0.062

Compound: CCCCC [pentane] + CCCCCC[n+]1ccn(C)c1.O=S(=O)([N-]S(=O)(=O)C(F)(F)F)C(F)(F)F
- activity coefficient (301.95 K): 6.26 ± 0.43
- activity coefficient (312.45 K): 5.44 ± 0.37
- activity coefficient (323.05 K): 5.33 ± 0.36
- activity coefficient (333.45 K): 4.72 ± 0.32
- activity coefficient (343.95 K): 4.09 ± 0.28

Compound: CCCCCc1ccccc1 [pentylbenzene] + CCCCCC[n+]1ccn(C)c1.O=S(=O)([N-]S(=O)(=O)C(F)(F)F)C(F)(F)F
- activity coefficient (364.65 K): 3.38 ± 0.23
- activity coefficient (375.15 K): 3.37 ± 0.23
- activity coefficient (385.65 K): 3.37 ± 0.23

Compound: CCCO [propan-1-ol] + CCCCCC[n+]1ccn(C)c1.O=S(=O)([N-]S(=O)(=O)C(F)(F)F)C(F)(F)F
- activity coefficient (312.45 K): 2.15 ± 0.15
- activity coefficient (323.05 K): 1.86 ± 0.13
- activity coefficient (333.45 K): 1.63 ± 0.11
- activity coefficient (343.95 K): 1.43 ± 0.09
- activity coefficient (354.45 K): 1.27 ± 0.08

Compound: CC(C)O [propan-2-ol] + CCCCCC[n+]1ccn(C)c1.O=S(=O)([N-]S(=O)(=O)C(F)(F)F)C(F)(F)F
- activity coefficient (301.65 K): 1.93 ± 0.13
- activity coefficient (312.25 K): 1.68 ± 0.11
- activity coefficient (322.75 K): 1.49 ± 0.1
- activity coefficient (333.25 K): 1.33 ± 0.09
- activity coefficient (343.75 K): 1.21 ± 0.08
- activity coefficient (354.05 K): 1.09 ± 0.07

Compound: CCC=O [propanal] + CCCCCC[n+]1ccn(C)c1.O=S(=O)([N-]S(=O)(=O)C(F)(F)F)C(F)(F)F
- activity coefficient (301.75 K): 0.453 ± 0.036
- activity coefficient (312.25 K): 0.45 ± 0.036
- activity coefficient (322.85 K): 0.444 ± 0.036
- activity coefficient (333.35 K): 0.439 ± 0.035

Compound: CCCc1ccccc1 [propylbenzene] + CCCCCC[n+]1ccn(C)c1.O=S(=O)([N-]S(=O)(=O)C(F)(F)F)C(F)(F)F
- activity coefficient (333.35 K): 2.1 ± 0.14
- activity coefficient (343.85 K): 2.08 ± 0.14
- activity coefficient (354.25 K): 2.03 ± 0.14
- activity coefficient (364.65 K): 2.02 ± 0.14
- activity coefficient (375.15 K): 2 ± 0.14
- activity coefficient (385.65 K): 1.96 ± 0.13

Compound: Cc1ccccc1 [toluene] + CCCCCC[n+]1ccn(C)c1.O=S(=O)([N-]S(=O)(=O)C(F)(F)F)C(F)(F)F
- activity coefficient (307.05 K): 1.04 ± 0.07
- activity coefficient (312.35 K): 1.04 ± 0.07
- activity coefficient (322.85 K): 1.06 ± 0.07
- activity coefficient (333.35 K): 1.06 ± 0.07
- activity coefficient (343.85 K): 1.08 ± 0.07

Compound: ClC(Cl)Cl [trichloromethane] + CCCCCC[n+]1ccn(C)c1.O=S(=O)([N-]S(=O)(=O)C(F)(F)F)C(F)(F)F
- activity coefficient (301.75 K): 0.67 ± 0.045
- activity coefficient (301.85 K): 0.67 ± 0.045
- activity coefficient (312.25 K): 0.68 ± 0.046
- activity coefficient (312.45 K): 0.68 ± 0.046
- activity coefficient (322.85 K): 0.69 ± 0.046
- activity coefficient (323.05 K): 0.7 ± 0.047
- activity coefficient (333.45 K): 0.71 ± 0.047
- activity coefficient (343.95 K): 0.72 ± 0.048

Compound: CCCCCCCCCCC [undecane] + CCCCCC[n+]1ccn(C)c1.O=S(=O)([N-]S(=O)(=O)C(F)(F)F)C(F)(F)F
- activity coefficient (312.35 K): 37.3 ± 2.5
- activity coefficient (322.85 K): 34.1 ± 2.3
- activity coefficient (333.35 K): 30 ± 2
- activity coefficient (343.75 K): 27.7 ± 1.9
- activity coefficient (354.25 K): 26 ± 1.8
